We go through two compounds from patent US6242445A, “Benzimidazole derivative” (Kureha Chemical Industry Co., Ltd., priority 1998, dated 2001).

The structures appear in SMILES notation.

In one data set the test system is SHR rats. Kind of data set: Action on weight of heart in SHR rats. It counts as in vivo. As to conditions: 20 weeks; for Relative weight ratio / Heart weight / Blood pressure / Body weight: 20 mg/kg oral in drinking solution, average±standard deviation; for Relative weight ratio: control 0.338 ± 0.012; for Heart weight: control 1.430 ± 0.082; for Blood pressure: control 224 ± 49; for Body weight: control 423 ± 17; for heart weight based on hypercardia / lowering of blood pressure / myocardiopathy: 20 mg/kg. On the procedure:
In this Example, an action on a weight of a heart was evaluated. More particularly, 21-week-old SHR rats were divided into a control group (8 rats) and a test group (7 rats). The rats in the test group were allowed to freely drink a solution prepared by dissolving 2-ethoxy-1-[[4'-(2"-N,N-dimethylamino-ethoxycarbonyl)phenyl]methyl]-1H-benzimidazole-6-carboxylic acid morpholide (Compound No. 13) prepared in Example 6 or 2-ethoxy-1-[[4'-(2'-morpholinoethoxycarbonyl)-phenyl]methyl]-1H-benzimidazole-6-carboxylic acid piperidinamide (Compound No. 57) prepared in Example 28 for 20 weeks (20 mg/kg). After the oral administration was finished, the heart was taken, and the weight of the heart was measured.

For a further data set, the system named is ICR female mice. Briefly: Acute toxicity (single oral administration). Format: in vivo. On the procedure: Acute toxicity was evaluated in this Example. As a compound to be examined, 2-ethoxy-1-[[4'-(2"-N,N-dimethylamino-ethoxycarbonyl)phenyl]methyl]-1H-benzimidazole-6-carboxylic acid morpholide (Compound No. 13) prepared in Example 6 was used.
Five-week-old ICR female mice (5 mice per group) were bredfor acclimation for a week. Then, Compound No. 13 was dissolved or suspended in 0.5% methylcellulose aqueous solution, and orally administered to the mice in a single dosage (500 mg/kg). […] Further, as to Compound No. 55, Compound No. 57, Compound No. 59, and Compound No. 65 prepared in Examples 26, 28, 31, and 23, respectively, acute toxicity was also evaluated.

Take `CCOc1nc2ccc(C(=O)N3CCOCC3)cc2n1Cc1ccc(C(=O)OCCN(C)C)cc1` [Compound No. 13, 2-ethoxy-1-[[4'-(2"-N,N-dimethylaminoethoxycarbonyl)phenyl]methyl]-1H-benzimidazole-6-carboxylic acid morpholide]: in the data set with SHR rats, the Relative weight ratio is reported as 0.328 ± 0.007%, the Heart weight was 1.392 ± 0.034 g, the Blood pressure is reported as 232 ± 12 mmHg and the Body weight worked out at 424 g. In addition, in the data set with SHR rats, the “heart weight based on hypercardia” value was “significantly reduced”, the “lowering of blood pressure” value is reported as “without inducing a lowering of blood pressure” and the “myocardiopathy” value was “suppresses myocardiopathy”. Moreover, the “Number of deaths/number of survivals” value in the data set with ICR female mice (500 mg/kg single oral, deaths observed for 6 days) is on record as 0/5.

`CCOc1nc2ccc(C(=O)N3CCCCC3)cc2n1Cc1ccc(C(=O)OCCN2CCOCC2)cc1` [Compound No. 57, 2-ethoxy-1-[[4'-(2"-morpholinoethoxycarbonyl)phenyl]methyl]-1H-benzimidazole-6-carboxylic acid piperidinamide]: in the data set with SHR rats, the Relative weight ratio came to 0.324 ± 0.012%, the Heart weight is reported as 1.390 ± 0.077 g, the Blood pressure is listed as 207 ± 14 mmHg and the Body weight came to 429 g. Moreover, in the data set on SHR rats, the “heart weight based on hypercardia” value is “significantly reduced”, the “lowering of blood pressure” value is given as “without inducing a lowering of blood pressure” and the “myocardiopathy” value is “suppresses myocardiopathy”. The “Number of deaths/number of survivals” value in the data set on ICR female mice (mouse, in vivo) was 0/5.
